# What was measured:
# [1] = system: olfactory system of the male fish; settings: olfactory detection of the sex pheromone, Sorenson et al. 1987; cited from earlier work
# [2] = system: male and female carp; assay: Electrophysiological and behavioural studies in an experimental behaviour chamber; format: in vivo
# Text: A particular composition which includes either a pure or crude synthetic form of 17,20β-dihydroxy-4-pregnen-3-one with an ethanol carrier has been tested by the inventors in laboratory experiments.
# [3] = system: carp; assay: Behavioural response of carp in a Perspex flow-through experimental flume; format: in vivo
# Method: The behaviour of carp in response to 17,20β-dihydroxy-4-pregnen-3-one was studied in a Perspex flow-through experimental flume. Fish were placed in the flume individually and allowed to acclimatise for a minimum of 1 hour before each experiment. The first set of experiments determined the behavioural response of male (n=5) and female (n=5) carp to serial dilutions of pure and synthetic form of 17,20β-dihydroxy-4-pregnen-3-one. Dilutions ranged from one part in 10^5 to one part in 10^11. The second set of experiments tested the behavioural response of male and female carp (n=6) to the same serial dilutions of synthetic 17,20β-dihydroxy-4-pregnen-3-one as used in Experiment 1, but with the addition of 5 dyed-gelatine pellets on the bottom of the flume. […] This feeding behaviour was characterised by the following: […]
smiles,measurement,setting,value
"C[C@@H](O)[C@@]1(O)CC[C@H]2[C@@H]3CCC4=CC(=O)CC[C@]4(C)[C@H]3CC[C@@]21C [17,20β-dihydroxy-4-pregnen-3-one]",threshold concentration for the male fish,[1],about 10^−13 M
same,feeding behaviour on detection of the hormone,[2]; experimental behaviour chamber,results in feeding behaviour
same,detection of the hormone by the fish,[2]; pure or crude synthetic form with an ethanol carrier,detected by both male and female carp
same,feeding behaviour in carp,[3]; added to the behaviour chamber at concentrations ranging from 10^−5 to one part in 10^−10,resulted in feeding behaviour in carp
same,attraction of fish,[3]; sexually immature carp,attracted immature carp
same,feeding behaviour in immature carp,[3]; sexually immature carp,resulted in feeding behaviour in these individuals
